From patent publication US20250064890A1, “PROTEIN COMPOSITIONS FOR THE TREATMENT OF INFLAMMATORY DISEASES” (Unichem Laboratories Limited, priority 2021, published 2025)

Key:
[1] = tested on: oral (buccal) mucosa cells (TR146); conditions: human, 24 h
Experimental: Non-cytotoxic concentration of recombinant lectin having the amino acid sequence of SEQ ID NO: 2 was determined by treating oral (buccal) mucosa cells (TR146) with varying concentration of SEQ ID NO: 2 for 24 hrs and determining the cell viability using MTT assay.

[2] = tested on: oral (buccal) mucosa cells (TR146); experiment: Cytoprotective effect against 5-FU induced damage (MTT); type: cell-based, human
Experimental: The cell viability was assessed by (MTT) assay and compared with positive control (Cells treated with Amifostine, EGCG and EGF and negative assay (untreated cells), wherein the control was the cells that underwent chemotherapy/radiotherapy.
The protective effect of the recombinant lectin on survival of TR146 cells against 5-FU induced damage was determined using following calculations:
The viability of cells was determined as: % Cell viability=(100−% Cytotoxicity); • where, the percentage cytotoxicity corresponding to each treatment was calculated as: % Cytotoxicity=[(R−X)/R]*100, wherein X=Absorbance of cells treated with 5-FU or radiation damage/TI+5-FU, R=Absorbance of Control cells (Untreated) and Percentage protection was calculated as:
{(Absorbance of TI+5-FU or radiation)−(Absorbance of 5-FU or radiation alone)/(Absorbance of Untreated)−(Absorbance of 5-FU alone)}*100

[3] = tested on: oral (buccal) mucosa cells (TR146); experiment: Annexin positive cell population against radiation damage; type: cell-based, human; conditions: for % Apoptotic cells: Annexin positive
Experimental: Oral buccal mucosal cells (TR146) were incubated overnight in 5% CO2 incubator at 37° C. for 24 h. […] After 24 h of treatment, cells were exposed to damage (5-FU 5 mM) for 1.25 h for chemotherapy induced inflammation and exposed to gamma radiation (3.5 kGy) using Cobalt 60 for radiation induced inflammation. After the exposure, the anti-apoptotic effect of SEQ ID NO 2 was determined by restoration of mitochondrial membrane depolarization by JC-1 staining and reduction in apoptotic cell populations (Annexin positive and subG0/G1 cells in cell cycle analysis).
To determine the reduction in apoptotic cell populations using annexin-v staining cells were gently harvested into pre-labeled sterile centrifuge tubes and centrifuged at 300×g for 5-7 min. Supernatant were discarded and the pellet was resuspended in 200 μl of fresh culture medium. 100 μl of cell suspension was transferred into pre-labeled sterile centrifuge tubes. 100 μl of Annexin-V reagent was added to each tube and incubated for 30 min at RT in dark. Cells stained for Annexin-V were then transferred into 96-well plates and acquired on flow cytometer (Guava technologies). Percentage of Annexin-V positive cells was calculated as follows:
={[% Annexin positive cells in 5-FU or radiation alone]−[% Annexin positive cells in (TI+5-FU) or (TI+radiation)]/% Annexin positive cells in 5-FU or radiation alone}*100

[4] = 0.1 μg/ml + Radiation (3.5 kGy)

## NCCCNCCSP(=O)(O)O [Amifostine, reference compound]
[1]
  non-cytotoxic concentration range: 1 to 25 µg/mL
[2]; 1 μg/ml + 5-FU (5 mM)
  % Protection: 4.1%
[2]; 5 μg/ml + 5-FU (5 mM)
  % Protection: 28.8%
[2]; 10 μg/ml + 5-FU (5 mM)
  % Protection: 55.2%
[2]; 25 μg/ml + 5-FU (5 mM)
  % Protection: 37.5%
[3]; [4]
  % Decrease in Apoptotic cells (with respect to radiation control): 47.3%
  % Apoptotic cells: 7.2%
[3]; 1 μg/ml + Radiation (3.5 kGy)
  % Decrease in Apoptotic cells (with respect to radiation control): 32.6%
  % Apoptotic cells: 9.2%
[3]; 10 μg/ml + Radiation (3.5 kGy)
  % Decrease in Apoptotic cells (with respect to radiation control): 63%
  % Apoptotic cells: 5.1%
